In PMC6218659, “Structures of DPAGT1 Explain Glycosylation Disease Mechanisms and Advance TB Antibiotic Design” (Cell, 2018):
Converted amounts (≈) assume the structure as drawn. Like-named read-outs stand apart in the source and are kept apart here.

Legend:
[1] = molecular target: T1, DPAGT1 (Homo sapiens, UniProt Q9H3H5); experiment: Radiolabeled substrate enzyme activity assay; type: biochemical, H. sapiens; conditions: purified DPAGT1 enzyme, Figure 6F
T1 construct: H. sapiens DPAGT1 (1-408, N-terminal 6 x HIS tag, TEV cleavage site); 6xHis purification tag with TEV site (N, cleaved yes); made in house; host or cells: Spodoptera frugiperda Sf9 insect cells (baculovirus)
T1 sequence (Q9H3H5 1-408): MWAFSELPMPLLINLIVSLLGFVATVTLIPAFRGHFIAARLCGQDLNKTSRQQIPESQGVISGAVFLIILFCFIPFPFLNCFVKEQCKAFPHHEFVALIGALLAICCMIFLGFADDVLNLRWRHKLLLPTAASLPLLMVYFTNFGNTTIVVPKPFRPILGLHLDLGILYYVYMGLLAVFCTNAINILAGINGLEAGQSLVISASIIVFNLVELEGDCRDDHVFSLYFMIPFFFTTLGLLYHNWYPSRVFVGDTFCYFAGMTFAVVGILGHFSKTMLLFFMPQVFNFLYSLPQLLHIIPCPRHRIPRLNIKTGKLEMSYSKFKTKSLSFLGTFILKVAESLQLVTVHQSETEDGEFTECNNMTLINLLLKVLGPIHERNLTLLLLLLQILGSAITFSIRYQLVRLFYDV
Protocol: 2 μl of 2 μM DPAGT1 WT or mutant proteins in GFB buffer supplemented with 5mM extra MgCl2, 1% OGNG/CHS/cardiolipin and dolichyl monophosphate was combined with 2 μl of UDP-N-acetyl [1-14C] […] The reaction was terminated by the addition of 6 μl of 100% methanol and immediately transferred onto ice. 1 μl of sample was spotted onto a silica coated TLC plate in triplicate and run with a mobile phase consisting of chloroform, methanol, and water at a 65:25:4 ratio respectively. After the run, the TLC plate was dried thoroughly, wrapped in cling film, incubated with a phosphor imaging substrate for 4 days, then phosphor imaged using a Biorad. The pixel density of the spots corresponding to the hydrophobic product was divided by combined pixel density of the product and the substrate and multiplied by the known concentration of substrate added to ascertain the amount of product formed.

[2] = system: B. subtilis EC1524; experiment: Micro-broth dilution and drop plate antimicrobial susceptibility test; type: cell-based, Bacillus subtilis
Protocol: (§1) In a sterile 96-well plate, serial dilutions were made with the test substance to final volume of 50 μl. Inoculum was then prepared in Mueller-Hinton broth to 0.5 McFarland and diluted before adding 50 μl to the well to make ∼1x10^5 CFU/ml. The culture plate was incubated at 35 °C for 20-24 hrs. A positive growth control and sterility wells were also prepared along with the culture wells. Absorbance at OD600 was taken using BMG Labtech SPECTROstar Omega spectrophotometer. MIC is determined by the lowest concentration without growth. IC50 is determined from plotting a dose-response curve, see Data Analysis below. To determine the MBC, using a multi-channel pipette, 1 μl of culture broth was taken from the same 96-well microdilution growth plate and carefully inoculated on surface of MH agar plate. The plate is then incubated for additional 20 hrs. at 35 °C. The MBC value is the lowest concentration without observed growth on the agar.

[3] = system: B. cereus ATCC11778; experiment: as above; type: cell-based, Bacillus cereus
Protocol: as §1

[4] = system: E. coli ATCC25922; experiment: as above; type: cell-based; conditions: Escherichia coli
Protocol: as §1

[5] = system: P. aeruginosa ATCC27853; experiment: as above; type: cell-based; conditions: Pseudomonas aeruginosa
Protocol: as §1

[6] = system: S. aureus ATCC29219; experiment: as above; type: cell-based; conditions: Staphylococcus aureus
Protocol: as §1

[7] = system: Mtb H37Rv ATCC27294; experiment: Minimum inhibitory concentrations testing against Mtb; type: cell-based, Mycobacterium tuberculosis; conditions: for MIC: Mycobacterium tuberculosis, 168 h
[8] = system: HEK293 cells; experiment: Cell proliferation assay (MTS); type: cell-based, human
Protocol: (§2) In sterile 96-well plate, each well was seeded with ∼1x10^5 cells. The cells are then grown confluent overnight in 100 μl DMEM with 10% FBS. The medium is replenished with DMEM with 2% FBS and added vehicle control or test substance the next day. For test substance in methanol, stock was added to 25 μl of DMEM with 2% FBS or PBS and placed in the laminar flow hood to let the methanol evaporate (about 1-3 hrs). Once the methanol has evaporated, DMEM with 2% FBS was added to final volume of 100 μl of desired test concentration. […] Cells are grown for additional 24 hrs. The cell viability was determined by using Promega CellTiter 96^© AQueous One Solution Cell Proliferation Assay (3-(4,5-dimethylthiazol-2-yl)-5-(3-carboxymethoxyphenyl)-2-(4-sulfophenyl)-2H-tetrazolium, inner salt; MTS) System following the manufacture protocol.

[9] = system: HepG2 cells; experiment: Cell proliferation assay (MTS); type: cell-based, human
Protocol: as §2

[10] = system: Raji cells; experiment: Cell proliferation assay (MTS); type: cell-based, human; conditions: 24 hrs
Protocol: as §2

[11] = system: Mtb-infected J774A.1 macrophages; experiment: Efficacy against Mtb growing in infected macrophages; conditions: J774A.1 macrophages treated 3 or 7 days
[12] = minimal lethal dose / MIC, 800 μg mL-1 used for >400
[13] = MTS cell proliferation assay, 24 hrs, highest concentration 400 µg mL-1
[14] = serial 2-fold dilutions (Table S6)

CCCCCCCC(=O)N[C@H]1[C@H](O[C@H]2O[C@H](CO)[C@@H](O)[C@H](O)[C@H]2NC(C)=O)O[C@H](C[C@@H](O)[C@H]2O[C@@H](n3ccc(=O)[nH]c3=O)[C@H](O)[C@@H]2O)[C@H](O)[C@@H]1O [TUN-8,Ac, N-Octanoyl-N’-acetyl tunicamycin]
effect on DPAGT1 catalytic activity [1]: restored inhibitory activity

CCCCCCCCC(=O)N[C@H]1[C@H](O[C@H]2O[C@H](CO)[C@@H](O)[C@H](O)[C@H]2NC(=O)CCCCCCCC)O[C@H](C[C@@H](O)[C@H]2O[C@@H](n3ccc(=O)[nH]c3=O)[C@H](O)[C@@H]2O)[C@H](O)[C@@H]1O [TUN-9,9, Di-N-nonanoyl-tunicamycin]
effect on DPAGT1 catalytic activity [1]: negligible effect | MIC ([2]; B. subtilis, micro-broth dilution, mean ± SEM (n=3)): 0.02 ± 0.01 µg/mL (≈ 0.0236 µM) | IC50 ([2]; Bacillus subtilis, EC1524): 0.015 µg/mL (≈ 0.0177 µM) | MBC ([2]; Bacillus subtilis, EC1524): > 0.05 µg/mL | MIC ([2]; Bacillus subtilis, EC1524): 0.02 ± 0.01 µg/mL (≈ 0.0236 µM) | MIC ([2]; Bacillus subtilis, EC1524, read-out: Minimal Inhibitory Concentration, B. subtilis EC1524): 0.024 µg/mL (≈ 0.0283 µM) | Relative Therapeutic Index (RTI), B. subtilis EC1524 [2, 12]: 33300 | IC50 ([3]; Bacillus cereus, ATCC11778): 0.072 µg/mL (≈ 0.085 µM) | MBC ([3]; Bacillus cereus, ATCC11778): > 25 µg/mL | MIC ([3]; Bacillus cereus, ATCC11778): 0.65 ± 0.23 µg/mL (≈ 0.767 µM) | MIC ([3]; Bacillus cereus, ATCC 11778 / NRRL11778, read-out: Minimal Inhibitory Concentration, B. cereus NRRL 11778): 0.78 µg/mL (≈ 0.921 µM) | Relative Therapeutic Index (RTI), B. cereus NRRL 11778 [3, 12]: 1026 | IC50 [4]: 87.1 µg/mL (≈ 103 µM) | MBC [4]: 400 µg/mL (≈ 472 µM) | MIC [4]: 330 ± 120 µg/mL (≈ 390 µM) | IC50 [5]: 55 µg/mL (≈ 64.9 µM) | MBC [5]: 400 µg/mL (≈ 472 µM) | MIC [5]: 83 ± 29 µg/mL (≈ 98 µM) | IC50 [6]: 48.9 µg/mL (≈ 57.8 µM) | MBC [6]: 400 µg/mL (≈ 472 µM) | MIC [6]: 83 ± 29 µg/mL (≈ 98 µM) | 1-week MIC in GAST/Fe ([7]; Mtb H37Rv, minimal growth medium): 0.03 ± 0.001 µg/mL | potency (MIC) relative to tunicamycin ([7]; Mtb H37Rv, more potent than tunicamycin): ~5 fold | MIC ([7]; read-out: 1-week MIC in 7H9/ADC/Tw): 0.2 ± 0.02 µg/mL (≈ 0.236 µM) | MIC ([7]; read-out: 1-week MIC in GAST/Fe): 0.03 ± 0.001 µg/mL (≈ 0.0354 µM) | MIC ([7]; read-out: Minimal Inhibitory Concentration, Mtb H37RV a): 0.2 µg/mL (≈ 0.236 µM) | MIC ([7]; read-out: Minimal Inhibitory Concentration, Mtb H37RV b): 0.03 µg/mL (≈ 0.0354 µM) | Relative Therapeutic Index (RTI), Mtb H37RV a ([7]; minimal lethal dose / MIC, 7H9/ADC/Tw, 800 μg mL-1 used for >400): 4000 | Relative Therapeutic Index (RTI), Mtb H37RV b ([7]; minimal lethal dose / MIC, GAST/Fe, 800 μg mL-1 used for >400): 27000 | LD50 values, HEK293 [8, 13]: N/A (N/A = not available. No or low cytotoxicity observed at highest, saturating concentration tested (400 µg mL-1)) | Minimal Lethal Dose, HEK 293 [8, 14]: > 400 µg/mL | LD50 values, HepG2 [9, 13]: N/A (N/A = not available. No or low cytotoxicity observed at highest, saturating concentration tested (400 µg mL-1)) | Minimal Lethal Dose, HepG2 [9, 14]: > 400 µg/mL | LD50 values, Raji [10]: 355.57 ± 194.57 µg/mL | reduction of intracellular bacterial burdens ([11]; 1 × MIC): 1 logs | reduction of intracellular bacterial burdens ([11]; 10 × MIC): 2 logs
